Patent US20020193564A1, “Oligomeric chaperone proteins” (priority 1999, published 2002)

Tests used:
[1] = tested on: E. coli SV6 groEL673; assay: In vivo complementation of ts groEL673 at 43° C.; type: cell-based; details: plasmids pJC, relative to growth at 30° C.
Protocol: (§1) In vivo Complementation Experiments.
(§2) Complementation experiments were performed by transforming electro-competent SV2 or SV6 cells with the pJC series of expression vectors and plating an aliquot of the transformation reactions directly at 43° C. The percentage of viable cells relative to the growth at 30° C. was determined. A representative number of clones which grew at 43° C. were incubated in absence of any selective markers at permissive temperature. After prolonged growth the loss of the pJC plasmids and the ts phenotype were verified. Each experiment was performed in duplicate. Plasmids carrying no groE genes or encoding the GroE proteins were used as negative or positive controls, respectively.

[2] = tested on: AI90 (ΔgroEL::kan^R) [pBADEL] E. coli strain; assay: Plating ability of AI90 on GroEL depletion at 37° C.; type: cell-based
Protocol: AI90 (ΔgroEL::kan^R) [pBAD-EL] cells were transformed with the pJC vector series. Transformants were selected at 37° C. on LB supplemented with 50 μg.ml^−1 of kanamycin, 120 μg.mL^−1 of ampicillin, 25 μg.mL^−1 of chloramphenicol and 0.2% L(+)arabinose. Depletion of GroEL protein was analysed at 37° C. by plating the same quantity of AI90 [PBAD-EL+pJC vectors] cells on LB plates containing 1% D(+)glucose or various amount of arabinose.
Each experiment was performed in triplicate. Plasmids carrying no groE genes or encoding the GroE proteins were used as negative or positive controls, respectively.

[3] = tested on: bacteriophage λ; assay: Growth of bacteriophage λ in transformed groEL strains; type: cell-based, bacteriophage λ (b2cI) in E. coli
Excerpt: (§3) The E. Coli strains used in this study were: C41(DE3), a mutant of BL21(DE3) capable of expressing toxic genes (Miroux, B. & Walker, J. E. (1996) J. Mol. Biol. 260, 289-298); SV2 (B178groEL44), SV3 (B178groEL59) and SV6 (B178groEL673): isogenic strains carrying temperature-sensitive alleles of groEL; SV1(=B178) (Georgopoulos, C., Hendrix, R. W., Casjens, S. R. & Kaiser, A. D. (1973) J. Mol. Biol. 76, 45-60), A190 (ΔgroEL::kan^R) [pBAD-EL] (Ivic, A., Olden, D., Wallington, E. J. & Lund, P. A. (1997) Gene 194, 1-8), and TG1 (Gibson, T. J. (1984) Ph.D. thesis, University of Cambridge, U.K). Bacteriophage λb2cI (Zeilstra-Ryalls, J., Fayet, O., Baird, L. & Georgopoulos, C. (1993) J. Bacteriol. 175, 1134-1143) was used according to standard methods (Arber, W., Enquist, L., Hohn, B., Murray, N. E. & Murray, K. (1983) in Lambda II., ed. R. W. Hendrix, J. W. r., F. W. Stahl and R. A. Weisberg (Cold Spring Harbor Laboratory, Cold Spring Harbor, N.Y.), pp. 433-466); plaque formation was assayed at 30° C. T4D0, a derivative of bacteriophage T4 (Zeilstra-Ryalls, J., Fayet, O., Baird, L. & Georgopoulos, C. (1993) J. Bacteriol. 175, 1134-1143), was used according to standard methods (Karam, J. D. (1994) Molecular biology of bacteriophage T4. (American Society for Microbiology, Washington, D.C.)); plaque formation was assayed at 37° C.

[4] = tested on: E. coli SV2 groEL44; assay: In vivo complementation of ts groEL44 at 43° C.; type: cell-based; details: plasmids pJC, relative to growth at 30° C.
Protocol: as §1, §2

[5] = tested on: bacteriophage T4; assay: Growth of bacteriophage T4 in transformed groEL strains; type: cell-based, bacteriophage T4 (T4D0) in E. coli; parameters: key to Growth of bacteriophage T4, SV1 (groEL^+) / Growth of bacteriophage T4, SV2 groEL44 / Growth of bacteriophage T4, SV3 GroEL59 / Growth of bacteriophage T4, SV6 groEL673: +++: normal plaque-forming ability relative to wild-type groEL^+ strain, in terms of both number and size; ++: 5-fold fewer plaques relative to wild-type groEL^+ strain, or both; 10-fold fewer plaques, or plaque size reduced relative to wild-type groEL^+ strain, or both; +/−: 10^2-fold fewer plaques and plaque size reduced relative to wild-type groEL^+ strain; no visible plaques (<10^−4); details: 37° C.
Excerpt: as §3

[6] = tested on: Lorist6 (bacteriophage λ origin vector); assay: Effect of over-expression on Lorist6 replication; type: cell-based, E. coli; details: over-expression from pJC
Protocol: Effect on Lorist6 Replication of Over-Expressing of MC7.
The effect of over-expressing Gp31 proteins from pJC vector series on the replication of the bacteriophage λ origin vector, Lorist6 (Gibson, T. J., Rosenthal, A. & Waterston, R. H. (1987) Gene 53, 283-286) in TG1 (Gibson, T. J. (1984) Ph.D. thesis, University of Cambridge, U.K) or SV1 (Georgopoulos, C., Hendrix, R. W., Casjens, S. R. & Kaiser, A. D. (1973) J. Mol. Biol. 76, 45-60) cells was determined essentially as described (Chatellier, J., Hill, F., Lund, P. & Fersht, A. R. (1998) Proc. Natl. Acad. Sci. U.S.A. 95, 9861-9866).

GroEL(1-548): key molecular chaperone in Escherichia coli, 14 subunits of 57.5 kD in two seven membered rings
Relative colony forming ability, SV6 groEL673 [1]: 1 | Plating ability, 0.00 % L(+)arabinose ([2]; 0.00% arabinose): +++ (growth identical to that in presence of 0.2% L(+)arabinose (100%), in terms of both number and size) | Plating ability, 0.01 % L(+)arabinose ([2]; 0.01% arabinose): +++ (growth identical to that in presence of 0.2% L(+)arabinose (100%), in terms of both number and size) | Plating ability, 0.10 % L(+)arabinose ([2]; 0.10% arabinose): +++ (growth identical to that in presence of 0.2% L(+)arabinose (100%), in terms of both number and size) | Plating ability, 0.15 % L(+)arabinose ([2]; 0.15% arabinose): +++ (growth identical to that in presence of 0.2% L(+)arabinose (100%), in terms of both number and size) | Growth of bacteriophage λ, SV1 (groEL^+) ([3]; 30° C., SV1): − (no visible plaques (<10^−4)) | Growth of bacteriophage λ, SV2 groEL44 ([3]; 30° C., SV2): + (10-fold fewer plaques, or plaque size reduced relative to wild-type groEL^+ strain, or both) | Growth of bacteriophage λ, SV3 GroEL59 ([3]; 30° C., SV3): ++ (5-fold fewer plaques relative to wild-type groEL^+ strain, or both) | Growth of bacteriophage λ, SV6 groEL673 ([3]; 30° C., SV6): +/− (10^2-fold fewer plaques and plaque size reduced relative to wild-type groEL^+ strain) | Complementation of groEL mutant strains for bacteriophage λ growth ([3]; 30° C., groEL mutant strains): weak complementation | Effect of over-expression on λ growth / plaque counts ([3]; SV1 (groE^+)): suffices to inhibit λ growth | Relative colony forming ability, SV2 groEL44 [4]: 1 | Growth of bacteriophage T4, SV1 (groEL^+) ([5]; SV1): +++ | Growth of bacteriophage T4, SV2 groEL44 ([5]; SV2): +++ | Growth of bacteriophage T4, SV3 GroEL59 ([5]; SV3): +++ | Growth of bacteriophage T4, SV6 groEL673 ([5]; SV6): +++ | replication of the Lorist6 plasmid [6]: inhibit the replication
